In article PMC7377239, “Cardiovascular Effects of Polychlorinated Biphenyls and Their Major Metabolites” (Environmental Health Perspectives, 2020):
Counter-ions that a name gives are not always drawn. Like-named read-outs stand apart in the source and are kept apart here.

Tests used:
[1] = test system: iCell endothelial cells (human iPSC-derived ECs); test: High-content imaging cytotoxicity in iCell endothelial cells, 24 h; type: cell-based; conditions: for minimal effective concentration / viability at 0.01 µM / activity at 0.01 µM / viability at 0.1 µM / activity at 0.1 µM / viability at 1 µM / activity at 1 µM / viability at 10 µM / activity at 10 µM / viability at 100 µM / activity at 100 µM: Homo sapiens, Endothelial cell, 24 hr; for viability at 0.1 µM / activity at 0.1 µM: 0.10 µM
Outline: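 Human iPSC-derived endothelial cells (passages 1–5) were grown to a fibronectin-coated monolayer, then exposed 24 h at 37 °C with 0.5% DMSO vehicle. Staining was Hoechst 33342, MitoTracker Orange and calcein AM, read by high-content imaging. Point of departure came from 4-parameter logistic fits, with a 1-SD vehicle cutoff and 100 µM as the top concentration.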

HUVECs = test: Tube formation (tubulogenesis) assay in HUVECs, 18 h; type: cell-based, human; conditions: Homo sapiens, HUVEC, 18 h, HUVEC; for activity at 0.1 µM: 0.10 µM
Outline: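 HUVECs (passage 1–5) seeded on reduced-growth-factor basement membrane and exposed to compounds overnight at 37°C, 5% CO2, in 2× maintenance medium with 12.5 ng/mL VEGF; 0.5% DMSO vehicle. Calcein AM-stained tube networks imaged and analysed; vehicle-normalized readouts fit to four-parameter logistic, POD set at one SD of vehicle means.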

[2] = endothelial cells (endo), cyto, read-out: POD endo.cyto.24hr
[3] = endothelial cells (endo), mito, read-out: POD endo.mito.24hr
[4] = endothelial cells (endo), mitoint, read-out: POD endo.mitoint.24hr
[5] = endothelial cells (endo), nma, read-out: POD endo.nma.24hr
[6] = endothelial cells (endo), tc, read-out: POD endo.tc.24hr
[7] = tube formation mtl, read-out: POD huvec.mtl.18hr
[8] = tube formation tlps, read-out: POD huvec.tlps.18hr
[9] = tube formation tta, read-out: POD huvec.tta.18hr
[10] = tube formation ttl, read-out: POD huvec.ttl.18hr
[11] = iPSC-EC, 0.00 µM control = 100.00, read-out: endo.cyto.24hr
[12] = iPSC-EC, 0.00 µM control = 100.00, read-out: endo.mito.24hr
[13] = iPSC-EC, 0.00 µM control = 100.00, read-out: endo.mitoint.24hr
[14] = iPSC-EC, 0.00 µM control = 100.00, read-out: endo.nma.24hr
[15] = iPSC-EC, 0.00 µM control = 100.00, read-out: endo.tc.24hrs
[16] = HUVECs, 0.00 µM = 100.00, read-out: huvec.mtl.18hr
[17] = HUVECs, 0.00 µM = 100.00, read-out: huvec.tlps.18hr
[18] = HUVECs, 0.00 µM = 100.00, read-out: huvec.tta.18hr
[19] = HUVECs, 0.00 µM = 100.00, read-out: huvec.ttl.18hr

Structure (SMILES): Clc1ccc(-c2ccccc2)cc1 [PCB 3, 4-chlorobiphenyl]
- minimal effective concentration [1, 2]: 100 µM
- minimal effective concentration [1, 3]: 100 µM
- minimal effective concentration [1, 4]: 100 µM
- minimal effective concentration [1, 5]: 100 µM
- minimal effective concentration [1, 6]: 100 µM
- effect on cell viability in iPSC-ECs ([1]; iPSC-ECs, 0.01-100 μM): did not affect cell viability
- minimal effective concentration (HUVECs; [7]): 25.3 µM
- minimal effective concentration (HUVECs; [8]): 100 µM
- minimal effective concentration (HUVECs; [9]): 0.67 µM
- minimal effective concentration (HUVECs; [10]): 0.7 µM

Structure (SMILES): O=S(=O)(O)Oc1cc(Cl)ccc1-c1ccccc1 [2-yl PCB 3 sulfate]
- viability at 0.01 µM [1, 11]: 93%
- activity at 0.01 µM [1, 12]: 93.3%
- activity at 0.01 µM [1, 13]: 114%
- activity at 0.01 µM [1, 14]: 103%
- viability at 0.01 µM [1, 15]: 93%
- viability at 0.1 µM [1, 11]: 97.1%
- activity at 0.1 µM [1, 12]: 97%
- activity at 0.1 µM [1, 13]: 101%
- activity at 0.1 µM [1, 14]: 100%
- viability at 0.1 µM [1, 15]: 97.1%
- viability at 1 µM [1, 11]: 97.8%
- activity at 1 µM [1, 12]: 98.5%
- activity at 1 µM [1, 13]: 104%
- activity at 1 µM [1, 14]: 99.6%
- viability at 1 µM [1, 15]: 97.8%
- viability at 10 µM [1, 11]: 97.1%
- activity at 10 µM [1, 12]: 97.8%
- activity at 10 µM [1, 13]: 118%
- activity at 10 µM [1, 14]: 99.1%
- viability at 10 µM [1, 15]: 97.2%
- viability at 100 µM [1, 11]: 102%
- activity at 100 µM [1, 12]: 102%
- activity at 100 µM [1, 13]: 99.3%
- activity at 100 µM [1, 14]: 96.5%
- viability at 100 µM [1, 15]: 102%
- minimal effective concentration ([1]; iPSC-EC, top concentration 100.00 µM, read-out: endo.cyto.24hr POD): 100 µM
- minimal effective concentration ([1]; iPSC-EC, top concentration 100.00 µM, read-out: endo.mito.24hr POD): 100 µM
- minimal effective concentration ([1]; iPSC-EC, top concentration 100.00 µM, read-out: endo.mitoint.24hr POD): 100 µM
- minimal effective concentration ([1]; iPSC-EC, top concentration 100.00 µM, read-out: endo.nma.24hr POD): 100 µM
- minimal effective concentration ([1]; iPSC-EC, top concentration 100.00 µM, read-out: endo.tc.24hrs POD): 100 µM
- activity at 0.01 µM (HUVECs; [16]): 100%
- activity at 0.01 µM (HUVECs; [17]): 98.8%
- activity at 0.01 µM (HUVECs; [18]): 108%
- activity at 0.01 µM (HUVECs; [19]): 108%
- activity at 0.1 µM (HUVECs; [16]): 99.3%
- activity at 0.1 µM (HUVECs; [17]): 101%
- activity at 0.1 µM (HUVECs; [18]): 147%
- activity at 0.1 µM (HUVECs; [19]): 147%
- activity at 1 µM (HUVECs; [16]): 97.8%
- activity at 1 µM (HUVECs; [17]): 116%
- activity at 1 µM (HUVECs; [18]): 132%
- activity at 1 µM (HUVECs; [19]): 128%
- activity at 10 µM (HUVECs; [16]): 90.4%
- activity at 10 µM (HUVECs; [17]): 99.7%
- activity at 10 µM (HUVECs; [18]): 90.3%
- activity at 10 µM (HUVECs; [19]): 93.2%
- activity at 100 µM (HUVECs; [16]): 74.5%
- activity at 100 µM (HUVECs; [17]): 59.6%
- activity at 100 µM (HUVECs; [18]): 61.5%
- activity at 100 µM (HUVECs; [19]): 62%
- minimal effective concentration (HUVECs; HUVECs, top concentration 100.00 µM, read-out: huvec.mtl.18hr POD): 10.7 µM
- minimal effective concentration (HUVECs; HUVECs, top concentration 100.00 µM, read-out: huvec.tlps.18hr POD): 37.4 µM
- minimal effective concentration (HUVECs; HUVECs, top concentration 100.00 µM, read-out: huvec.tta.18hr POD): 100 µM
- minimal effective concentration (HUVECs; HUVECs, top concentration 100.00 µM, read-out: huvec.ttl.18hr POD): 100 µM

Structure (SMILES): O=S(=O)(O)Oc1cc(-c2ccccc2)ccc1Cl [3-PCB 3 sulfate]
- minimal effective concentration [1, 2]: 100 µM
- minimal effective concentration [1, 3]: 100 µM
- minimal effective concentration [1, 4]: 100 µM
- minimal effective concentration [1, 5]: 100 µM
- minimal effective concentration [1, 6]: 100 µM
- minimal effective concentration (HUVECs; [7]): 11.5 µM
- minimal effective concentration (HUVECs; [8]): 65.8 µM
- minimal effective concentration (HUVECs; [9]): 100 µM
- minimal effective concentration (HUVECs; [10]): 52.1 µM
